Experimental data published in US9663496B2, “AMPK-activating heterocyclic compounds and methods for using the same” (Rigel Pharmaceuticals, Inc., priority 2010, dated 2017).

Molecular target: AMPK
Assay: AMPK activation, enzyme-linked immunosorbent assay
Format: biochemical
Settings: EC50 for AMPK activation, ELISA
Procedure: Compounds were assayed for their ability to activate AMPK using an enzyme-linked immunosorbent assay. Reagents and procedures for measuring AMPK activation are well known and kits for AMPK activation assays are commercially available.

`N#Cc1ccc(CN2CCC(NC(=O)c3ccc(C(=O)N4CCC(C(=O)c5ccc(F)c(F)c5)CC4)cn3)CC2)cc1` [Compound 281, N-(1-(4-cyanobenzyl)piperidin-4-yl)-5-(4-(3,4-difluorobenzoyl)piperidine-1-carbonyl)picolinamide] gave an EC50 of less than 500 nM.
In the case of `N#Cc1ccc(O[C@H]2CC[C@@H](NC(=O)c3ccc(C(=O)N4CCC(C(=O)c5ccc(N6CCCC6)cc5)CC4)nc3)CC2)cc1` [Compound 442, N-((cis)-4-(4-cyanophenoxy)cyclohexyl)-6-(4-(4-(pyrrolidin-1-yl)benzoyl)piperidine-1-carbonyl)nicotinamide], the EC50 is reported as less than 500 nM.
With `COc1ccc(C(=O)C2CCN(C(=O)c3ncc(C(=O)NC4CCN(Cc5ccc(C#N)cc5)CC4)cc3CCCNC(=O)OC(C)(C)C)CC2)cc1` [Compound 416, tert-butyl 3-(5-(1-(4-cyanobenzyl)piperidin-4-ylcarbamoyl)-2-(4-(4-methoxybenzoyl)piperidine-1-carbonyl)pyridin-3-yl)propylcarbamate] the EC50 was 1000 to 5000 nM.
`COc1ccc(C(=O)C2CCN(C(=O)c3ccc(C(=O)N[C@H]4CC[C@@H](Oc5ccc(C#N)cc5)CC4)nc3)CC2)cc1` [Compound 171, N-((cis)-4-(4-cyanophenoxy)cyclohexyl)-5-(4-(4-methoxybenzoyl)piperidine-1-carbonyl)picolinamide] gave an EC50 of less than 500 nM.
`COc1ccc(C(=O)C2CCN(C(=O)c3ccc(C(=O)NC4CCN(Cc5ccc(C#N)cc5)CC4)cn3)CC2)cc1` [Compound 309, N-(1-(4-cyanobenzyl)piperidin-4-yl)-6-(4-(4-methoxybenzoyl)piperidine-1-carbonyl)nicotinamide] showed an EC50 of less than 500 nM.
Compound `COc1ccc(OC2CCN(C(=O)c3ccc(C(=O)NC4CCN(Cc5ccc(C#N)cc5)CC4)cn3)CC2)c(N)c1` [Compound 384, 6-(4-(2-amino-4-methoxyphenoxy)piperidine-1-carbonyl)-N-(1-(4-cyanobenzyl)piperidin-4-yl)nicotinamide] has an EC50 of 500 to 1000 nM.
`O=C(NC1CCN(Cc2ccc(OC(F)(F)F)cc2)CC1)c1ccc(C(=O)N2CCC(Oc3ccc(S(F)(F)(F)(F)F)cc3)CC2)nc1` [Compound 494, 6-(4-(4-(pentafluorosulfanyl)phenoxy)piperidine-1-carbonyl)-N-(1-(4-(trifluoromethoxy)benzyl)piperidin-4-yl)nicotinamide] gave an EC50 of less than 500 nM.
With `CC(=O)c1ccc(Oc2ccc(NC(=O)c3ccc(C(=O)N4CCN(c5ccc(S(=O)(=O)C(C)C)cc5)CC4)nc3)cn2)cc1` [Compound 489, N-(6-(4-acetylphenoxy)pyridin-3-yl)-6-(4-(4-(isopropylsulfonyl)phenyl)piperazine-1-carbonyl)nicotinamide] the EC50 was less than 500 nM.
For `Cc1nc(Oc2ccc(C#N)cc2)ccc1NC(=O)c1ccc(C(=O)N2CCC(C(=O)c3ccc(F)cc3F)CC2)nc1` [Compound 479, N-(6-(4-cyanophenoxy)-2-methylpyridin-3-yl)-6-(4-(2,4-difluorobenzoyl)piperidine-1-carbonyl)nicotinamide], the EC50 was less than 500 nM.
Work on `CS(=O)(=O)c1ccc(N2CCC(NC(=O)c3ccc(C(=O)N4CCC(Oc5ccc(C#N)cc5)CC4)nc3)CC2)cc1` [Compound 420, 6-(4-(4-cyanophenoxy)piperidine-1-carbonyl)-N-(1-(4-(methylsulfonyl)phenyl)piperidin-4-yl)nicotinamide] yielded an EC50 of 1000 to 5000 nM.
For `N#Cc1ccc(OC2CCN(C(=O)c3ccc(C(=O)N[C@H]4CC[C@@H](Oc5ccc(C#N)cc5)CC4)cn3)CC2)cc1` [Compound 321, N-((cis)-4-(4-cyanophenoxy)cyclohexyl)-6-(4-(4-cyanophenoxy)piperidine-1-carbonyl)nicotinamide], the EC50 was less than 500 nM.
`COc1ccc(CN2CCN(C(=O)c3ccc(C(=O)NC4CCN(Cc5ccc(C#N)cc5)CC4)nc3)CC2)cc1` [Compound 101, N-(1-(4-cyanobenzyl)piperidin-4-yl)-5-(4-(4-methoxybenzyl)piperazine-1-carbonyl)picolinamide] was tested, and the EC50 was less than 500 nM.
Work on `N#Cc1ccc(CN2CCC(NC(=O)c3ccc(C(=O)N4CCC(C(=O)c5ccc(-n6cccn6)cc5)CC4)nc3)CC2)cc1` [Compound 393, 6-(4-(4-(1H-pyrazol-1-yl)benzoyl)piperidine-1-carbonyl)-N-(1-(4-cyanobenzyl)piperidin-4-yl)nicotinamide] yielded an EC50 of less than 500 nM.
In the case of `O=C(Nc1ccc(Oc2ccc(F)cc2)nc1)c1ccc(C(=O)N2CCC(C(=O)c3ccc(N4CCOCC4)cc3)CC2)cn1` [Compound 379, N-(6-(4-fluorophenoxy)pyridin-3-yl)-5-(4-(4-morpholinobenzoyl)piperidine-1-carbonyl)picolinamide], the EC50 is reported as less than 500 nM.
In the case of `N#Cc1ccc(CN2CCC(NC(=O)c3ccc(C(=O)N4CCC(C(=O)c5ccc(-n6cccn6)cc5)CC4)cn3)CC2)cc1` [Compound 375, 5-(4-(4-(1H-pyrazol-1-yl)benzoyl)piperidine-1-carbonyl)-N-(1-(4-cyanobenzyl)piperidin-4-yl)picolinamide], the EC50 is reported as less than 500 nM.
`CS(=O)(=O)c1ccc(N2CCN(C(=O)c3ccc(C(=O)NC4CCN(Cc5ccc(C#N)cc5)CC4)nc3)CC2)cc1` [Compound 250, N-(1-(4-cyanobenzyl)piperidin-4-yl)-5-(4-(4-(methylsulfonyl)phenyl)piperazine-1-carbonyl)picolinamide] was tested, and the EC50 was less than 500 nM.
With `CS(=O)(=O)c1ccc(C(=O)C2CCN(C(=O)c3ccc(C(=O)NC4CCN(Cc5ccc(F)cc5)CC4)nc3)CC2)cc1` [Compound 225, N-(1-(4-fluorobenzyl)piperidin-4-yl)-5-(4-(4-(methylsulfonyl)benzoyl)piperidine-1-carbonyl)picolinamide] the EC50 was less than 500 nM.
Work on `N#Cc1ccc(CN2CCC(C(=O)Nc3ccc(C(=O)N4CCC(C(=O)c5ccc(F)cc5)CC4)cn3)CC2)cc1` [Compound 175, 1-(4-cyanobenzyl)-N-(5-(4-(4-fluorobenzoyl)piperidine-1-carbonyl)pyridin-2-yl)piperidine-4-carboxamide] yielded an EC50 of less than 500 nM.
Work on `O=C(c1ccc(C(=O)N2CCN(Cc3ccccc3)CC2)nc1)N1CCN(Cc2ccccc2)CC1` [Compound 73, pyridine-2,5-diylbis((4-benzylpiperazin-1-yl)methanone)] yielded an EC50 of 5000 to 10000 nM.
`CCS(=O)(=O)c1ccc(C(=O)C2CCN(C(=O)c3ccc(C(=O)NC4CCN(Cc5ccc(C#N)cc5)CC4)nc3)CC2)cc1` [Compound 260, N-(1-(4-cyanobenzyl)piperidin-4-yl)-5-(4-(4-(ethylsulfonyl)benzoyl)piperidine-1-carbonyl)picolinamide] showed an EC50 of less than 500 nM.
`O=C(Nc1ccc(Oc2ccc(F)cc2)nc1)c1cnc(C(=O)N2CCC(Oc3ccc(C(F)(F)F)cc3)CC2)cn1` [Compound 205, N-(6-(4-fluorophenoxy)pyridin-3-yl)-5-(4-(4-(trifluoromethyl)phenoxy)piperidine-1-carbonyl)pyrazine-2-carboxamide] was tested, and the EC50 was less than 500 nM.
With `CCOC(=O)C(c1ccccc1)N1CCC(NC(=O)c2ccc(C(=O)N3CCN(Cc4ccc(F)cc4)CC3)cn2)CC1` (centres unmarked) [Compound 98, ethyl 2-(4-(5-(4-(4-fluorobenzyl)piperazine-1-carbonyl)picolinamido)piperidin-1-yl)-2-phenylacetate] the EC50 was 1000 to 5000 nM.
`COc1ccc(CN2CCC(NC(=O)c3ccc(C(=O)N4CCC(Oc5ccc(F)cc5F)CC4)nc3)CC2)cc1` [Compound 344, 6-(4-(2,4-difluorophenoxy)piperidine-1-carbonyl)-N-(1-(4-methoxybenzyl)piperidin-4-yl)nicotinamide] showed an EC50 of less than 500 nM.
With `CC(=O)Nc1cccc(OC2CCN(C(=O)c3ccc(C(=O)NC4CCN(Cc5ccc(C#N)cc5)CC4)cn3)CC2)c1` [Compound 411, 6-(4-(3-acetamidophenoxy)piperidine-1-carbonyl)-N-(1-(4-cyanobenzyl)piperidin-4-yl)nicotinamide] the EC50 was 1000 to 5000 nM.
With `COc1ccc(Oc2ccc(NC(=O)c3ccc(C(=O)N4CCN(Cc5ccc(F)cc5)CC4)cn3)cc2)cc1` [Compound 54, 5-(4-(4-fluorobenzyl)piperazine-1-carbonyl)-N-(4-(4-methoxyphenoxy)phenyl)picolinamide] the EC50 was less than 500 nM.
Work on `N#Cc1ccc(CN2CCC(NC(=O)c3ccc(C(=O)N4CCN(c5ccc(C(=O)C(F)(F)F)cc5)CC4)cn3)CC2)cc1` [Compound 263, N-(1-(4-cyanobenzyl)piperidin-4-yl)-5-(4-(4-(2,2,2-trifluoroacetyl)phenyl)piperazine-1-carbonyl)picolinamide] yielded an EC50 of less than 500 nM.
For `N#Cc1ccc(CN2CCC(NC(=O)c3ccc(C(=O)N4CCC(C(=O)c5ccc(N6CCCC6)cc5)CC4)nc3)CC2)cc1F` [Compound 447, N-(1-(4-cyano-3-fluorobenzyl)piperidin-4-yl)-6-(4-(4-(pyrrolidin-1-yl)benzoyl)piperidine-1-carbonyl)nicotinamide], the EC50 was less than 500 nM.
`N#Cc1ccc(O[C@H]2CC[C@@H](NC(=O)c3ccc(C(=O)N4CC[C@H](Oc5ccc(F)cc5)C4)cn3)CC2)cc1` [Compound 176, N-((cis)-4-(4-cyanophenoxy)cyclohexyl)-5-((S)-3-(4-fluorophenoxy)pyrrolidine-1-carbonyl)picolinamide] showed an EC50 of 1000 to 5000 nM.
`N#Cc1ccc(CN2CCC(NC(=O)c3ccc(C(=O)N4CCN(c5ccc(C(F)(F)F)cc5)CC4)cn3)CC2)cc1` [Compound 339, N-(1-(4-cyanobenzyl)piperidin-4-yl)-5-(4-(4-(trifluoromethyl)phenyl)piperazine-1-carbonyl)picolinamide] was tested, and the EC50 was less than 500 nM.
With `COc1ccc(CN2CCC(NC(=O)c3ccc(C(=O)N4CCC(Oc5ccc(C#N)cc5)CC4)nc3)CC2)cc1` [Compound 319, 6-(4-(4-cyanophenoxy)piperidine-1-carbonyl)-N-(1-(4-methoxybenzyl)piperidin-4-yl)nicotinamide] the EC50 was less than 500 nM.
`N#Cc1ccc(CN2CCC(NC(=O)c3ccc(C(=O)N4CCN(S(=O)(=O)c5ccccc5)CC4)cn3)CC2)cc1` [Compound 82, N-(1-(4-cyanobenzyl)piperidin-4-yl)-5-(4-(phenylsulfonyl)piperazine-1-carbonyl)picolinamide] gave an EC50 of 500 to 1000 nM.
Work on `CC(C)(c1ccccc1)N1CCN(C(=O)c2ccc(C(=O)NC3CCN(Cc4ccc(C#N)cc4)CC3)nc2)CC1` [Compound 133, N-(1-(4-cyanobenzyl)piperidin-4-yl)-5-(4-(2-phenylpropan-2-yl)piperazine-1-carbonyl)picolinamide] yielded an EC50 of less than 500 nM.
